Measurements from US8222297B2, “Aniline or phenol mustards linked to DNA-affinic molecules or water-soluble aromatic rings and their use as cancer therapeutic agents” (Academia Sinica, priority 2007, dated 2012).
Read-outs that look alike come from different tables or passages of the source.

How the values were obtained:
[1] = system: CCRF-CEM human lymphoblastic leukemia cells; test: In vitro cytotoxicity, XTT assay
CCRF-CEM/Taxol = test: In vitro cytotoxicity, XTT assay, taxol-resistant subline; details: for IC50: Homo sapiens, CCRF-CEM, 72 h, read-out: IC50 CCRF-CEM/Taxol, XTT assay, 72-hr incubation; for fold of cross-resistant, CCRF-CEM/Taxol vs IC50 of parent cell line: number in brackets
[2] = system: human mammary carcinoma MX-1 xenograft; test: Antitumor therapeutic effect in nude mice bearing MX-1 xenograft; type: in vivo; details: for Tumor remission achieved: doses and schedules as in Table 2 (30-150 mg/kg, i.v.); for log cell kill: estimated by Eq. 4 from remission time; for Duration complete remission maintained without relapse: one cycle 5-dose-treatment, 3 out of 3 mice
Procedure: (§1) Athymic nude mice bearing the nu/nu gene were used for human breast tumor MX-1 xenograft (FIGS. 3 and 4) and human brain glioma U87 GM xenograft (FIG. 5). Nude mice were obtained from National Cancer Institute, Frederick, Md. Male mice 6 weeks old or older weighing 22 g or more were used for experiments with subcutaneous tumor inoculation as described previously.^62 Drug was administrated via the tail vein by iv injection. Tumor volumes were assessed by measuring length×width×height (or width) by using caliper. Vehicle used was 20 μL DMSO in 180 μL saline. All animal studies were conducted in accordance with the guidelines of the U.S. National Institutes of Health Guide for the Care and Use of Animals and the protocol approved by the Institutional Animal Care and Use Committee.
(§2) Animals. Athymic nude mice bearing the nu/nu gene were obtained from NCI, Frederick, Md. and used for all human tumor xenografts. Male nude mice 6 weeks or older weighing 20-24 g or more were used. Compounds were administered via the tail vein for i.v. injection or infusion as described previously.^59 A typical formulation for chemotherapeutic studies for each drug was dissolved in DSMO to make a 25 mg/ml fresh solution, 0.4 ml of this solution was mixed with 0.3 ml of Tween 80, plus 1.3 ml to make 2 ml of 5 mg/ml solution. Bolus injection volume was 0.1-0.2 ml per mouse. Tumor volume was assessed by measuring length×width×height (or width) by using a caliper. For tumor-bearing nude mice during the course of the experiment, the body weight refers to total weight minus the weight of the tumor. All animal studies were conducted in accordance with the guidelines for the National Institute of Health Guide for the Care and Use of Animals and the protocol approved by the Institutional Animal Care and Use Committee.
The therapeutic effects of a drug against human tumor xenografts in nude mice, under the optimal therapeutic conditions but without any lethality due to drug toxicity, the following degrees of therapeutic effects are defined and calculated by the following formula:
[formula] • where T0 is the initial tumor size (in mm^3) at beginning of drug treatment; • Tc is tumor size of untreated control group on a given date; and • Tx is tumor size of the drug treated group on a given date.
[formula] • Where T0 and Tx are as specified as above. • Tumor disappearance (complete remission or CR) is defined by the effect where [Tx=0] for a period of time (in days) for a proportion of animals (NCR/N), where N is the total number of animals in the group, and NCR is the number of mice in the group that achieved CR. • Tumor relapse is quantitatively calculated by [The Day tumor relapsed(Drelp)−The Day CR achieved(DCR)] (Eq. 3) • for a proportion of animals (Nrelp/N) where N is the total number of animals in the group, and Nrelp is the number of the mice in the group that relapsed. • The log cell kill (LCK) of the tumor tissue after a given chemotherapy that reached CR is estimated by: LCK=log [2^(Tumor remission in days/Tumor doubling time in days)] (Eq. 4)

MX-1 cells = test: Inhibition of biosynthesis of DNA, RNA and protein (tracer incorporation); type: cell-based, human; details: for degrees of inhibiting biosynthesis of DNA and RNA, maximized: [3H]thymidine / [3H]adenosine incorporation; for persistence of inhibition of biosynthesis: printed 'over 6-24 hrs'
Procedure: [^3H]Thymidine (1 uCi), [^3H]adenosine (1 μCi) and [^3H]leucine (2 μCi) were used as the tracers for incorporation into DNA, RNA and protein, respectively. […] Incubation was terminated at each time points as indicated. For details of the method see Chou et al. Cancer Research 43: 3074-3079, 1983. […] The half-maximal inhibition was reached within 15-30 min and persisted for over 6-24 hrs.

[3] = system: Human colon carcinoma HCT-116 cells; test: In vitro cytotoxicity, SRB assay
[4] = system: Human mammary carcinoma (MX-1) tumor cells; test: In vitro cytotoxicity, SRB assay
[5] = system: human glioma U87 GM s.c. xenograft; test: Therapeutic effect in nude mice bearing U87 glioma xenograft; type: in vivo
Procedure: as §1
The therapeutic effects of N-mustard compounds, BO-1049, 1051 and 1055, against human glioma U87 GM s.c. xenograft in nude mice were given in FIG. 5, A and B. U87 glioma is known to be refractory tumor that can not be effectively treated with cell-cycle specific anti-tumor drugs such as taxol, epothilones, or arabinosylcytosine. However, cell-cycle non-specific drugs such as alkylating agent, cyclophosphamide or BCNU, yields better therapeutic results. […] However, upon 6 days of recession of treatment with BO-1049 or BO-1055, the tumor began to regrow.
as §2

[6] = Homo sapiens, CCRF-CEM, 72 h, read-out: IC50 CCRF-CEM, XTT assay, 72-hr incubation
[7] = Homo sapiens, HCT-116, 72 h, read-out: IC50 HCT-116, SRB assay, 72-hr incubation
[8] = Homo sapiens, 72 h, read-out: IC50 MX-1, SRB assay, 72-hr incubation
[9] = read-out: IC50 CCRF-CEM, XTT assay, 72-hr incubation

O=C(Nc1ccc(N(CCCl)CCCl)cc1)Nc1c2ccccc2nc2ccccc12 [BO-1034, 1-Acridin-9-yl-3{4-[bis(2-chloroethyl)amino]phenyl}urea]
IC50 [1, 6]: 198 nM
IC50 (CCRF-CEM/Taxol): 418 nM
fold of cross-resistant, CCRF-CEM/Taxol vs IC50 of parent cell line (CCRF-CEM/Taxol): 2.1 x

O=C(Nc1ccc(N(CCCl)CCCl)cc1)Nc1cc(CO)cc(Nc2c3ccccc3nc3ccccc23)c1 [BO-1037, 1-[3-(Acridin-9-ylamino)-5-hydroxymethylphenyl]-3-{4-[bis(2-chloroethyl)amino]phenyl}-urea]
Tumor remission achieved [2]: CR in parts of the mice
IC50 [1, 6]: 54.5 nM

Cc1cc(NC(=O)Nc2ccc(N(CCCl)CCCl)cc2)c2ccccc2n1 [BO-1038, 1-{4-[Bis(2-chloroethyl)amino]phenyl}-3-(2-methyl-quinolin-4-yl)urea]
time to half-maximal inhibition of biosynthesis (MX-1 cells; 10 μM): 15 to 30 min
degrees of inhibiting biosynthesis of DNA and RNA, maximized (MX-1 cells; 10 μM): 50-80%
persistence of inhibition of biosynthesis (MX-1 cells; 10 μM): 6 to 24 h
Tumor remission achieved [2]: complete tumor remission
log cell kill [2]: > 4.1
Duration complete remission maintained without relapse [2]: over 70 days
IC50 [3, 7]: 1240 nM
fold of cross-resistant, CCRF-CEM/Taxol vs IC50 of parent cell line (CCRF-CEM/Taxol): 2.2 x

Cc1cccc2c(Nc3cc(CO)cc(NC(=O)Nc4ccc(N(CCCl)CCCl)cc4)c3)c3ccccc3nc12 [BO-1050, 1-{4-[bis(2-chloroethyl)amino]phenyl}-3-[3-hydroxymethyl-5-(4-methylacridin-9-ylamino)phenyl]urea]
Tumor remission achieved [2]: CR in parts of the mice
log cell kill [2]: > 4.1
Duration complete remission maintained without relapse [2]: over 70 days
IC50 [1, 6]: 30 nM
IC50 [4, 8]: 128 nM
fold of cross-resistant, CCRF-CEM/Taxol vs IC50 of parent cell line (CCRF-CEM/Taxol): 12.8 x

Cc1ccc(Nc2c3ccccc3nc3c(C)cccc23)cc1NC(=O)Nc1ccc(N(CCCl)CCCl)cc1 [BO-1051]
delay in reaching maximal effect on DNA and RNA biosynthesis (MX-1 cells; 10 μM): about 1 hr
time to half-maximal inhibition of biosynthesis (MX-1 cells; 10 μM): 15 to 30 min
degrees of inhibiting biosynthesis of DNA and RNA, maximized (MX-1 cells; 10 μM): 50-80%
persistence of inhibition of biosynthesis (MX-1 cells; 10 μM): 6 to 24 h
inhibition at 10 µM (MX-1 cells; Homo sapiens, MX1, 0.5 h, after initial activation within the first 30 min, read-out: protein synthesis: moderate inhibition following initial activation): ~20%
Tumor remission achieved [2]: complete tumor remission
log cell kill [2]: > 4.1
Duration complete remission maintained without relapse [2]: over 70 days
tumor-growth suppression ([5]; 100 mg/kg, Q2D×5, i.v.-injection, n=3): complete tumor-growth suppression
tumor size as % of original tumor size ([5]; 100 mg/kg, Q2D×5, n=3, one cycle, observed 10 and 12 days after last dose on Day 16): 18%
therapeutic effect compared with cyclophosphamide ([5]; BO-1049 150, BO-1051 100, BO-1055 30 mg/kg vs cyclophosphamide 80 mg/kg, all Q2D×5, parallel study): superior therapeutic effects than cyclophosphamide
IC50 [1, 6]: 74 nM
IC50 [4, 8]: 174 nM

Cc1ccc(NC(=O)Nc2ccc(N(CCCl)CCCl)cc2)cc1Nc1c2cccc(C)c2nc2c(C(=O)NCCN(C)C)cccc12 [BO-1053, 9-[5-(3-{4-[Bis(2-chloroethyl)amino]phenyl}ureido)-2-methylphenylamino]-5-methylacridine-4-carboxylic acid (2-dimethylaminoethyl)amide]
Remark (tolerability of dose) ([2]; 70 mg/kg, Q2D × 5, i.v.): Too high dose
Tumor remission achieved [2]: complete tumor remission
IC50 [1, 9]: 12 nM
fold of cross-resistant, CCRF-CEM/Taxol vs IC50 of parent cell line (CCRF-CEM/Taxol): 15.3 x

CCOC(=O)Nc1cc(COC(=O)Nc2ccc(N(CCCl)CCCl)cc2)cc(Nc2c3ccccc3nc3ccccc23)c1 [BO-1054, (3-(Acridin-9-ylamino)-5-{4-[bis(2-chloroethyl)amino]phenylcarbamoyloxymethyl}-phenyl)carbamic acid ethyl ester]
IC50 [1, 9]: 84 nM
IC50 ([4]; read-out: IC50 MX-1, SRB assay, 72-hr incubation): 605 nM
IC50 ([3]; read-out: IC50 HCT-116, SRB assay, 72-hr incubation): 757 nM

O=C(Nc1cc(CO)cc(Nc2c3ccccc3nc3ccccc23)c1)Oc1ccc(N(CCCl)CCCl)cc1 [BO-1062, [3-(Acridin-9-ylamino)-5-hydroxymethylphenyl]carbamic acid 4-[bis(2-chloro-ethyl)amino]phenyl ester]
Tumor remission achieved [2]: complete tumor remission
IC50 [1, 6]: 57 nM
IC50 (CCRF-CEM/Taxol): 112 nM
fold of cross-resistant, CCRF-CEM/Taxol vs IC50 of parent cell line (CCRF-CEM/Taxol): 2.0 x

Cc1cccc2c(Nc3cc(CO)cc(NC(=O)Oc4ccc(N(CCCl)CCCl)cc4)c3)c3ccccc3nc12 [BO-1063, [3-Hydroxymethyl-5-(4-methylacridin-9-ylamino)phenyl]carbamic acid 4-[bis(2-chloroethyl)amino]phenyl ester]
Remark (tolerability of dose) ([2]; 100 mg/kg, QD × 3, i.v.): Too high dose
IC50 [1, 6]: 75 nM
IC50 (CCRF-CEM/Taxol): 81 nM
fold of cross-resistant, CCRF-CEM/Taxol vs IC50 of parent cell line (CCRF-CEM/Taxol): 1.1 x

Cc1ccc(Nc2c3ccccc3nc3c(C)cccc23)cc1NC(=O)Oc1ccc(N(CCCl)CCCl)cc1 [BO-1064, [2-Methyl-5-(4-methylacridin-9-ylamino)phenyl]carbamic acid 4-[bis(2-chloro-ethyl)amino]phenyl ester]
Tumor remission achieved [2]: complete tumor remission
IC50 [1, 6]: 116 nM
fold of cross-resistant, CCRF-CEM/Taxol vs IC50 of parent cell line (CCRF-CEM/Taxol): 1.4 x

CCOC(=O)Nc1cc(COC(=O)Oc2ccc(N(CCCl)CCCl)cc2)cc(Nc2c3ccccc3nc3ccccc23)c1 [BO-1065, Carbonic acid 3-(acridin-9-ylamino)-5-ethoxycarbonylaminobenzyl ester 4-[bis(2-chloroethyl)amino]phenyl ester]
Remark (tolerability of dose) ([2]; 100 mg/kg, QD × 3, i.v.): Too high dose

COc1cc(NC(=O)Oc2ccc(N(CCCl)CCCl)cc2)cc(Nc2c3ccccc3nc3ccccc23)c1 [BO-1066, [3-(Acridin-9-ylamino)-5-methoxyphenyl]carbamic acid 4-[bis(2-chloroethyl)-amino]phenyl ester]
Tumor remission achieved [2]: complete tumor remission
fold of cross-resistant, CCRF-CEM/Taxol vs IC50 of parent cell line (CCRF-CEM/Taxol): 1.5 x

CC(=O)O[C@H]1C(=O)[C@@]2(C)[C@H]([C@H](OC(=O)c3ccccc3)[C@]3(O)C[C@H](OC(=O)[C@H](O)[C@@H](NC(=O)c4ccccc4)c4ccccc4)C(C)=C1C3(C)C)[C@]1(OC(C)=O)CO[C@@H]1C[C@@H]2O [Taxol, reference compound]
IC50 [1, 6]: 1.3 ± 0.1 nM
IC50 [4, 8]: 35 ± 14 nM
IC50 [3, 7]: 1.3 ± 0.2 nM
fold of cross-resistant, CCRF-CEM/Taxol vs IC50 of parent cell line (CCRF-CEM/Taxol): 330 x

CC[C@]1(O)C[C@@H]2CN(CCc3c([nH]c4ccccc34)[C@@](C(=O)OC)(c3cc4c(cc3OC)N(C)[C@H]3[C@@](O)(C(=O)OC)[C@H](OC(C)=O)[C@]5(CC)C=CCN6CC[C@]43[C@@H]65)C2)C1 [Vinblastine, reference compound]
IC50 [1, 6]: 0.73 ± 0.09 nM
IC50 [4, 8]: 2.9 ± 0.5 nM
IC50 [3, 7]: 1.8 ± 0.4 nM
fold of cross-resistant, CCRF-CEM/Taxol vs IC50 of parent cell line (CCRF-CEM/Taxol): 106.2 x
